Measured values published in patent US20060263802A1 (priority 2003, published 2006).

What was measured:
Assay type in all cases: binding
[1] = system: human monoclonal antibody CR57
[2] = system: human monoclonal antibody CRJB
[3] = system: human monoclonal antibody CRJB; remark: listed apart in the source
[4] = system: human monoclonal antibody CR57; remark: listed apart in the source
[5] = system: human monoclonal antibody CRJA
[6] = system: human monoclonal antibody CRJA; remark: listed apart in the source

Row | Sequence | Binding of CR57 to linear peptide (PEPSCAN-ELISA signal) [1] | Binding of CRJB (10 μg/ml) to looped/cyclic peptide (PEPSCAN-ELISA signal) [2] | Binding of CRJB to linear peptide (PEPSCAN-ELISA signal) [3] | Binding of CR57 (10 μg/ml) to looped/cyclic peptide (PEPSCAN-ELISA signal) [4] | Binding of CRJA to linear peptide (PEPSCAN-ELISA signal) [5] | Binding of CRJA (10 μg/ml) to looped/cyclic peptide (PEPSCAN-ELISA signal) [6] | Binding of CRJB (10 μg/ml) to looped/cyclic peptide (PEPSCAN-ELISA) [2] | Binding of CR57 (10 μg/ml) to looped/cyclic peptide (PEPSCAN-ELISA) [4] | Binding of CRJA (10 μg/ml) to looped/cyclic peptide (PEPSCAN-ELISA) [6] | Binding of human monoclonal antibody CR57 to linear peptide (PEPSCAN-ELISA signal) [1] | Binding of CRJB to looped/cyclic peptide (PEPSCAN-ELISA signal) [2] | Binding of human monoclonal antibody CRJB to linear peptide (PEPSCAN-ELISA signal) [3] | Binding of CR57 to looped/cyclic peptide (PEPSCAN-ELISA signal) [4] | Binding of human monoclonal antibody CRJA to linear peptide (PEPSCAN-ELISA signal) [5] | Binding of CRJA to looped/cyclic peptide (PEPSCAN-ELISA signal) [6]
1 | SRGKRASKGSETCGF | 64 | 86 | 93 | 96 | 70 | 82 | – | – | – | – | – | – | – | – | –
2 | SRVFPSGKCSGVAVS | 100 | 89 | 125 | 112 | 107 | 92 | – | – | – | – | – | – | – | – | –
3 | SSLLQQHMELLESSV | 90 | – | 128 | – | 106 | – | 76 | 98 | 90 | – | – | – | – | – | –
4 | SSTYCSTNHDYTIWM | 76 | 66 | 107 | 96 | 71 | 90 | – | – | – | – | – | – | – | – | –
5 | SSVIPLVHPLADPST | 73 | – | 104 | – | 60 | – | 80 | 120 | 45 | – | – | – | – | – | –
6 | STNHDYTIWMPENPR | 60 | 74 | 112 | 72 | 77 | 51 | – | – | – | – | – | – | – | – | –
7 | STVFKDGDEAEDFVE | – | – | – | – | – | – | – | – | – | 104 | 93 | 120 | 106 | 93 | 100
8 | STYCSTNHDYTIWMP | 86 | 82 | 99 | 90 | 79 | 90 | – | – | – | – | – | – | – | – | –
9 | SVADLDPYDRSLHSR | 49 | 71 | 106 | 58 | 92 | 83 | – | – | – | – | – | – | – | – | –
10 | SVIPLVHPLADPSTV | 72 | – | 137 | – | 64 | – | 106 | 71 | 75 | – | – | – | – | – | –
11 | SVRTWNEILPSKGCL | 106 | – | 138 | – | 123 | – | 147 | 151 | 165 | – | – | – | – | – | –
12 | SVSFRRLSHLRKLVP | 64 | – | 123 | – | 101 | – | 84 | 94 | 98 | – | – | – | – | – | –
13 | SYMELKVGYILAIKM | 65 | 92 | 123 | 106 | 143 | 96 | – | – | – | – | – | – | – | – | –
14 | TCGFVDERGLYKSLK | 47 | – | 120 | – | 104 | – | 79 | 84 | 100 | – | – | – | – | – | –
15 | TCTGVVTEAENYTNF | 92 | 93 | 112 | 107 | 96 | 112 | – | – | – | – | – | – | – | – | –
16 | TEAENYTNFVGYVTT | 68 | 60 | 84 | 75 | 86 | 76 | – | – | – | – | – | – | – | – | –
17 | TFKRKHFRPTPDACR | 96 | 99 | 111 | 112 | 97 | 105 | – | – | – | – | – | – | – | – | –
18 | TGVVTEAENYTNFVG | 85 | 69 | 110 | 92 | 86 | 96 | – | – | – | – | – | – | – | – | –
19 | TIFNKTLMEADAHYK | 107 | – | 123 | – | 100 | – | 91 | 114 | 96 | – | – | – | – | – | –
20 | TILDKLGPWSPIDIH | 76 | 60 | 96 | 85 | 84 | 86 | – | – | – | – | – | – | – | – | –
21 | TIWMPENPRLGMSCD | 69 | 82 | 106 | 97 | 93 | 102 | – | – | – | – | – | – | – | – | –
22 | TKESLVIISPSVADL | 86 | 80 | 112 | 99 | 102 | 88 | – | – | – | – | – | – | – | – | –
23 | TKSVSFRRLSHLRKL | 83 | – | 125 | – | 103 | – | 94 | 88 | 91 | – | – | – | – | – | –
24 | TLMEADAHYKSVRTW | 100 | – | 114 | – | 111 | – | 87 | 89 | 89 | – | – | – | – | – | –
25 | TNFVGYVTTTFKRKH | 71 | 99 | 125 | 79 | 96 | 96 | – | – | – | – | – | – | – | – | –
26 | TNHDYTIWMPENPRL | 69 | 58 | 129 | 40 | 91 | 72 | – | – | – | – | – | – | – | – | –
27 | TNLSGFSYMELKVGY | 43 | 107 | 106 | 39 | 102 | 85 | – | – | – | – | – | – | – | – | –
28 | TNSRGKRASKGSETC | 68 | 104 | 108 | 107 | 89 | 104 | – | – | – | – | – | – | – | – | –
29 | TPDACRAAYNWKMAG | 92 | 90 | 132 | 125 | 132 | 111 | – | – | – | – | – | – | – | – | –
30 | TSNETKWCPPDQLVN | 97 | – | 111 | – | 88 | – | 57 | 134 | 96 | – | – | – | – | – | –
